Results taken from patent publication US20050137220A1 (Pharmacia Corporation, priority 2003, published 2005).
pIC50: −log10 of the molar value. Where a name gives a salt, the structure may show the parent alone.

Target: MK-2 (Homo sapiens, UniProt P49137)
Assay: Determination of MK-2 IC50 (phosphorylation of HSP-peptide, anion exchange resin capture assay)
Format: biochemical
Details: additional values are replicate IC50 experiments; mixture of stereoisomers implied unless otherwise noted; read-out: MK-2 Avg. IC50

Chain of MK-2 (P49137 whole entry, species assumed): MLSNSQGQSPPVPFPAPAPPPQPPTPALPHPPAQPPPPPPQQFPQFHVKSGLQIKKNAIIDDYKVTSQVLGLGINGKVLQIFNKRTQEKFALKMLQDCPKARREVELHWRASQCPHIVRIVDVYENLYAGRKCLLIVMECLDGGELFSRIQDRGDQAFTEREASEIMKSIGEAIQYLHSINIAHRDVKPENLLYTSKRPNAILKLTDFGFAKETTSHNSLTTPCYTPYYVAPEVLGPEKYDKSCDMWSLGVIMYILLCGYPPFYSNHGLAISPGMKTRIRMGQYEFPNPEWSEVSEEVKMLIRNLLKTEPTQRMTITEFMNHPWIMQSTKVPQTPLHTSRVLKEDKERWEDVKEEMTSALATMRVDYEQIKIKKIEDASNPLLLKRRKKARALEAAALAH

Compound | pIC50
COc1ccc2[nH]c3c(c2c1)C(c1ccccc1)CNC3C(=O)O (stereo not drawn) [Example 210, 6-methoxy-4-phenyl-2,3,4,9-tetrahydro-1H-beta-carboline-1-carboxylic acid hydrochloride] | < 3.70
CCOC(=O)C1c2[nH]c3ccccc3c2CCN1C(=O)c1ccc(OC)o1 (stereo not drawn) [Example 211, 1h-Pyrido[3,4-B]Indole-1-Carboxylic Acid, 2,3,4,9-Tetrahydro-2-[(5-Methoxy-2-Furanyl)Carbonyl]-,Ethyl Ester] | < 3.70
COC(=O)C1(C)NCCc2c1[nH]c1ccccc21 (stereo not drawn) [Example 212, 1h-Pyrido[3,4-B]Indole-1-Carboxylic Acid, 2,3,4,9-Tetrahydro-1-Methyl-,Methyl Ester] | < 3.70
O=C(O)C1NCCc2c1[nH]c1cc(F)ccc21 (stereo not drawn) [Example 214, 7-fluoro-2,3,4,9-tetrahydro-1H-beta-carboline-1-carboxylic acid hydrochloride] | < 3.70
Cc1ccc2[nH]c3c(c2c1)CCNC3C(=O)O (stereo not drawn) [Example 216, 6-methyl-2,3,4,9-tetrahydro-1H-beta-carboline-1-carboxylic acid hydrochloride] | < 3.70
COc1ccc2[nH]c3c(c2c1)CCN(C(=O)OCc1ccccc1)C3C(=O)O (stereo not drawn) [Example 219, 2-[(benzyloxy)carbonyl]-6-methoxy-2,3,4,9-tetrahydro-1H-beta-carboline-1-carboxylic acid] | < 3.70
COc1ccc2[nH]c3c(c2c1)CCNC3C(N)=O (stereo not drawn) [Example 220, 6-methoxy-2,3,4,9-tetrahydro-1H-beta-carboline-1-carboxamide] | < 3.70
COc1ccc2[nH]c3c(c2c1)CCNC3CO (stereo not drawn) [Example 221, (6-methoxy-2,3,4,9-tetrahydro-1H-beta-carbolin-1-yl)methanol] | < 3.70
COc1ccc2[nH]c3c(c2c1)CCNC3C(F)(F)F (stereo not drawn) [Example 224, 6-methoxy-1-(trifluoromethyl)-2,3,4,9-tetrahydro-1H-beta-carboline] | < 3.70
C=CCN1CCc2c([nH]c3ccc(OC)cc23)C1C(=O)OC (stereo not drawn) [Example 225, methyl 2-allyl-6-methoxy-2,3,4,9-tetrahydro-1H-beta-carboline-1-carboxylate] | < 3.70
COc1ccc2[nH]c3c(c2c1)CCNC3(CC(=O)O)C(=O)O (stereo not drawn) [Example 226, 1-(carboxymethyl)-6-methoxy-2,3,4,9-tetrahydro-1H-beta-carboline-1-carboxylic acid] | < 3.70
COC(=O)C1Cc2c([nH]c3ccccc23)C(C(=O)O)N1 (stereo not drawn) [Example 227, 3-(methoxycarbonyl)-2,3,4,9-tetrahydro-1H-beta-carboline-1-carboxylic acid] | < 3.70
COc1ccc2[nH]c3c(c2c1)CCNC3C(=O)NCC(=O)O (stereo not drawn) [Example 229, N-[(6-methoxy-2,3,4,9-tetrahydro-1H-beta-carbolin-1-yl)carbonyl]glycine hydrochloride hydrate] | < 3.70
COc1ccc2[nH]c3c(c2c1)CCNC3CN (stereo not drawn) [Example 230, 1-(6-methoxy-2,3,4,9-tetrahydro-1H-beta-carbolin-1-yl)methanamine trifluoroacetate hydrate] | < 3.70
COC(=O)C1c2[nH]c3ccc(OC)cc3c2CCN1C(C)=O (stereo not drawn) [Example 232, methyl 2-acetyl-6-methoxy-2,3,4,9-tetrahydro-1H-beta-carboline-1-carboxylate] | < 3.70
COC(=O)C1c2[nH]c3ccc(OC)cc3c2CCN1C(=O)OC(C)(C)C (stereo not drawn) [Example 234, 2-tert-butyl 1-methyl 6-methoxy-1,3,4,9-tetrahydro-2H-beta-carboline-1,2-dicarboxylate] | < 3.70
COC(=O)C1(C)NCCc2c1[nH]c1ccccc21 (stereo not drawn) [Example 235, methyl 1-methyl-2,3,4,9-tetrahydro-1H-beta-carboline-1-carboxylate] | < 3.70
COc1ccc2[nH]c3c(c2c1)CCNC3(C)C(=O)O (stereo not drawn) [Example 237, 6-methoxy-1-methyl-2,3,4,9-tetrahydro-1H-beta-carboline-1-carboxylic acid hydrochloride] | < 3.70
COC(=O)c1cccc2[nH]c3c(c12)CCNC3C(=O)O (stereo not drawn) [Example 238, 5-(methoxycarbonyl)-2,3,4,9-tetrahydro-1H-beta-carbolin-1-carboxylic acid hydrate] | < 3.70
COc1ccc2[nH]c3c(c2c1)CCNC3[C@H](O)CO (stereo partly drawn) [Example 239, (1S)-1-(6-methoxy-2,3,4,9-tetrahydro-1H-beta-carbolin-1-yl)ethane-1,2-diol trifluoroacetate] | < 3.70
O=C1NCCc2c1[nH]c1cccc(C(=O)O)c21 [Example 250, 1-oxo-2,3,4,9-tetrahydro-1H-beta-carboline-5-carboxylic acid] | < 3.70
O=C1NCCc2c1[nH]c1ccc([N+](=O)[O-])cc21 [Example 253, 6-nitro-2,3,4,9-tetrahydro-1H-beta-carbolin-1-one] | < 3.70
CCOc1cc([N+](=O)[O-])c2[nH]c3c(c2c1)CCNC3=O [Example 255, 6-ethoxy-8-nitro-2,3,4,9-tetrahydro-1H-beta-carbolin-1-one] | < 3.70
O=C1NCCc2c1[nH]c1c(Br)cc3c(c21)OCCO3 [Example 256, 6-bromo-2,3,7,9,10,11-hexahydro-8H-[1,4]dioxino[2,3-e]pyrido[3,4-b]indol-8-one] | < 3.70
CN1CCc2c(n(-c3ccccc3)c3ccccc23)C1=O [Example 257, 2-methyl-9-phenyl-2,3,4,9-tetrahydro-1H-beta-carbolin-1-one] | < 3.70
COc1ccc([N+](=O)[O-])c2c3c(n(C)c12)C(=O)NCC3 [Example 259, 8-methoxy-9-methyl-5-nitro-2,3,4,9-tetrahydro-1H-beta-carbolin-1-one] | < 3.70
O=C1NCCc2c1[nH]c1ccccc21 [Example 260, 1H-Pyrido[3,4-b]indol-1-one,2,3,4,9-tetrahydro- or 2,3,4,9-tetrahydro-1H-beta-carbolin-1-one] | < 3.70
O=C1NCCc2c1[nH]c1c(Cl)cccc21 [Example 262, 1H-Pyrido[3,4-b]indol-1-one,8-chloro-2,3,4,9-tetrahydro- or 8-chloro-2,3,4,9-tetrahydro-1H-beta-carbolin-1-one] | < 3.70

Other lines, results leading:

pIC50 | Compound
< 3.70 | COC(=O)C1c2[nH]c3ccc(OC)cc3c2CCN1C(=O)C(F)(F)F (stereo not drawn) [Example 207, methyl 6-methoxy-2-(trifluoroacetyl)-2,3,4,9-tetrahydro-1H-beta-carboline-1-carboxylate]
< 3.70 | COC(=O)CC1CC2(C(=O)OC)c3[nH]c4ccccc4c3CCN2C1=O (stereo not drawn) [Example 213, 1h-Indolizino[8,7-B]Indole-2-Acetic Acid, 2,3,5,6,11,11b-(Methoxycarbonyl)-3-Oxo-, Methyl Ester]
< 3.70 | Cc1cccc2c3c([nH]c12)C(C(=O)O)NCC3 (stereo not drawn) [Example 215, 8-methyl-2,3,4,9-tetrahydro-1H-beta-carboline-1-carboxylic acid hydrochloride]
< 3.70 | COc1ccc2c3c([nH]c2c1)C(C(=O)O)NCC3 (stereo not drawn) [Example 217, 7-methoxy-2,3,4,9-tetrahydro-1H-beta-carboline-1-carboxylic acid hydrochloride]
< 3.70 | COc1ccc2[nH]c3c(c2c1)CCN(C(=O)OCc1ccccc1)C3C(=O)NCC(=O)OCc1ccccc1 (stereo not drawn) [Example 218, 2-[(benzyloxy)carbonyl]-6-methoxy-N-[2-(benzyloxy)-2-oxo]ethyl-2,3,4,9-tetrahydro-1H-beta-carboline-1-carboxamide]
< 3.70 | COc1ccc2[nH]c3c(c2c1)C(Cc1ccco1)CNC3C(=O)O (stereo not drawn) [Example 222, 4-(2-furylmethyl)-6-methoxy-2,3,4,9-tetrahydro-1H-beta-carboline-1-carboxylic acid trifluoroacetate]
< 3.70 | COc1cccc2c3c([nH]c12)C(C(=O)O)NCC3 (stereo not drawn) [Example 223, 8-methoxy-2,3,4,9-tetrahydro-1H-beta-carboline-1-carboxylic acid trifluoroacetate hydrate]
< 3.70 | COc1ccc2[nH]c3c(c2c1)CCNC3CC#N (stereo not drawn) [Example 231, (6-methoxy-2,3,4,9-tetrahydro-1H-beta-carbolin-1-yl)acetonitrile]
< 3.70 | COc1ccc2[nH]c3c(c2c1)C(c1ccccc1)CNC3C(=O)O (stereo not drawn) [Example 233, 6-methoxy-4-phenyl-2,3,4,9-tetrahydro-1H-beta-carboline-1-carboxylic acid]
< 3.70 | COc1ccc2[nH]c3c(c2c1)CCN1COC(=O)C31 (stereo not drawn) [Example 236, 8-methoxy-5,6,11,11b-tetrahydro-1H-[1,3]oxazolo[3′,4′:1,2]pyrido[3,4-b]indol-1-one]
< 3.70 | COc1ccc2[nH]c3c(c2c1)CCNC3(Cc1ccccc1)C(=O)O (stereo not drawn) [Example 241, 1-benzyl-6-methoxy-2,3,4,9-tetrahydro-1H-beta-carboline-1-carboxylic acid hydrochloride]
< 3.70 | O=C1NCCc2c1[nH]c1ccc(C#Cc3ccccc3)cc21 [Example 248, 6-(phenylethynyl)-2,3,4,9-tetrahydro-1H-beta-carbolin-1-one]
< 3.70 | O=C1NCCc2c1[nH]c1cccc(C(=O)N3CCOCC3)c21 [Example 251, 5-(morphoiln-4-ylcarbonyl)-2,3,4,9-tetrahydro-1H-beta-carbolin-1-one]
< 3.70 | O=C1NCCc2c1[nH]c1c(Cl)ccc(Cl)c21 [Example 252, 5,8-dichloro-2,3,4,9-tetrahydro-1H-beta-carbolin-1-one]
< 3.70 | Cc1ccc2[nH]c3c(c2c1)CCNC3=O [Example 254, 1h-Pyrido[3,4-B]Indol-1-One,2,3,4,9-Tetrahydro-6-Methyl-]
< 3.70 | Cc1cccc2c3c([nH]c12)C(=O)NCC3 [Example 258, 1H-Pyrido[3,4-b]indol-1-one,2,3,4,9-tetrahydro-8-methyl- or 8-methyl-2,3,4,9-tetrahydro-1H-beta-carbolin-1-one]
< 3.70 | O=C1NCCc2c1[nH]c1ccc(F)cc21 [Example 261, 1H-Pyrido[3,4-b]indol-1-one,6-fluoro-2,3,4,9-tetrahydro- or 6-fluoro-2,3,4,9-tetrahydro-1H-beta-carbolin-1-one or 1h-Pyrido[3,4-B]Indol-1-One,6-Fluoro-2,3,4,9-Tetrahydro-]
